The text below walks through data of patent publication US10010560B2, “Small molecule HSP70 inhibitors” (THE TRUSTEES OF THE UNIVERSITY OF PENNSYLVANIA, priority 2014, dated 2018).

For one test, the target named is T1, HSP70 (Homo sapiens, UniProt P0DMV8, E110D).
T1 construct: His6 (N); made in house; host or cells: E. coli BL21 Star (DE3)
The test can be described thus: ITC of HSP70 preincubated with competing compound. The note with it: ITC competition. The format is binding. From the text: FIGS. 3A-3L illustrate that PET-16 binds directly to ADP-bound HSP70 and DnaK. Specifically, FIGS. 3A-3H are isothermal calorimetric titration (ITC) assays of the indicated compounds (NRLLLTG—SEQ ID NO: 7, PES or PET-16) with purified HSP70-ADP, DnaK-ADP or HSP70-ATP proteins. The data are representative of three independent experiments. FIGS. 3I and 3J are ITC assays for the interaction between HSP70 (aa 386-616 of SEQ ID NO: 2) protein and PET-16 (I) or TPP (J). Binding constants (Kd values) are shown (average and s.d. from three independent experiments). PET-16 also binds directly to the purified, full-length, nucleotide-free HSP70 protein, with a reported dissociation constant of 5.2+/−0.1 micromolar, which is the average and standard deviation from two independent experiments (data not shown). FIG. 3K is ITC assay of HSP70 protein preincubated with ADP and PES for 1 h. The mixture was titrated into the sample cell containing PET-16. The data are representative of three independent ITC experiments. FIG. 3L are western blots of human lung carcinoma (H1299) cells that were pretreated with DMSO or excess (8×) PET-16 for 1 h prior to the addition of 20 μM B-PES for 5 h and examined for the expression of HSP70 or BCL-xL. B-PES-containing complexes were captured by Avidin resins and immunoblotted either with anti-HSP70 or anti-BCL-xL antibody. […]

The target of the next test is T2, ADP-HSP70 (WT, aa 1-641) (Homo sapiens, UniProt P0DMV8, E110D).
T2 construct: Full-length recombinant proteins of HSP70 (aa 1-641) as well as DnaK (aa 1-638); His6 (N); made in house; host or cells: E. coli BL21 Star (DE3)
T2 sequence (P0DMV8 whole entry E110D, the tested form may be a part): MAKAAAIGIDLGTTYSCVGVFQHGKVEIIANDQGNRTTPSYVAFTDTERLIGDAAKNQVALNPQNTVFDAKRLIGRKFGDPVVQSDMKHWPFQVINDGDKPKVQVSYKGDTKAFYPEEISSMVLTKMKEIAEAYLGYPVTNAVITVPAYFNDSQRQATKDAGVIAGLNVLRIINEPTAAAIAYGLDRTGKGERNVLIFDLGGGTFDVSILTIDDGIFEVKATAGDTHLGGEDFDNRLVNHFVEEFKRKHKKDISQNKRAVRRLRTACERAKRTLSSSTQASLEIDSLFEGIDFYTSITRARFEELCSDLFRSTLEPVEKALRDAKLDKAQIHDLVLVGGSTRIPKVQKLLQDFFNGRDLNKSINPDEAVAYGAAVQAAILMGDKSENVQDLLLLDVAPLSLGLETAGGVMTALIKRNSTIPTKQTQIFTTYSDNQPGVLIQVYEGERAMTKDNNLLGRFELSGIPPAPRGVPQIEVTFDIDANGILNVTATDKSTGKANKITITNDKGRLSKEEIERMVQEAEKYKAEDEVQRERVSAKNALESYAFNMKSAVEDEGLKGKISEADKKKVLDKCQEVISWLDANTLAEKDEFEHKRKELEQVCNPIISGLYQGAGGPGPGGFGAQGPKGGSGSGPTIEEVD
Nature of the test: ITC binding to ADP-bound full-length HSP70. The text has this: The human stress-inducible HSP70 (residues 1-641 or 386-616 of SEQ ID NO: 2) and E. coli DnaK (residues 1-638, 389-607, or 393-507 of SEQ ID NO: 4) were cloned into the pET25 vector (EMD Millipore Chemicals, Inc., Billerica, Mass., USA) between the NdeI and XhoI restriction sites. The full-length HSP70 and DnaK mutants were constructed by PCR-based site-directed mutagenesis using the QuikChange™ Site-Directed Mutagenesis Kit (Agilent Technologies, Inc., Santa Clara, Calif., USA). All plasmid inserts were verified by DNA sequencing. All HSP70 and DnaK variants were produced with a N-terminal His6-tag in the E. coli BL21 Star (DE3) strain (Invitrogen catalog number C6010-03). The resulting strains were grown at 37° C. in LB medium containing 50 μg/mL of carbenicillin (Sigma-Aldrich Co., St. Louis, Mo., USA). At an OD600 about 0.3 to about 0.5, protein expression was induced with 0.5 mM isopropyl-β-D-thiogalactopyranoside (IPTG), and cells were subsequently grown at 25° C. for about 16 h. Cells were collected by centrifugation and resuspended in the Bugbuster® Master Mix (EMD Millipore Chemicals catalog number 71456-4), supplemented with protease inhibitors, 1 mM diethiothreitol (DTT) and 20 mM imidazole. The His6-tagged fusion proteins were isolated on Ni^2+-chelating resins (Ni-NTA Superflow, Qiagen catalog number 30410) by standard procedures. When necessary, size-exclusion chromatography on a Superdex® 200 or a Superose® 6 10/300 GL columns (GE Healthcare) analytical column pre-equilibrated with 1× Dulbecco's Phosphate Buffered Saline (DPBS—Invitrogen 14190-136), 1 mM Tris-HCl (pH 7.4) or 10 mM Tris-HCl (pH 7) was used as the final purification step. The purified DnaK proteins were dialyzed thoroughly against 1× DPBS with 5 mM DTT at 4° C., for crystallization trials involving the small molecule inhibitor PET-16. For isothermal titration calorimetry studies, all HSP70 and DnaK variants were dialyzed extensively against the buffers as noted below under the section entitled “Isothermal Titration calorimetry Studies”. The dialyzed proteins were subsequently microcentrifugated at 15,000×g for 5 min at 4° C. and aliquots of the soluble proteins were stored at −80° C.
All ITC experiments were performed using a MicroCal VP-ITC isothermal titration calorimeter (MicroCal). Both full-length HSP70 and DnaK proteins and DnaK (aa 393-507) proteins were prepared in 1 mM Tris-HCl (pH 7.4) buffer containing 3% dimethylsulfoxide (DMSO). The HSP70 (aa 386-616) protein was prepared in buffer containing 3% DMSO and 10 mM Tris-HCl, pH 7. The syringe was loaded with purified protein in either 1 mM Tris-HCl (pH 7.4) buffer containing 3% DMSO or 10 mM Tris-HCl (pH 7) buffer containing 3% DMSO. The sample cell of the calorimeter was loaded with PES, PET-16 or NRLLLTG (SEQ ID NO: 7) prepared in the same buffer. All solutions were degassed for 5 min.
The titrations involving the full-length purified proteins were performed at 25° C. with injection volumes of 12 μL and a spacing of 300 s. The titrations involving the purified HSP70 (aa 386-616) and DnaK (aa 393-507) were performed at 42° C. with injection volumes of 12 μL and a spacing of 300 s. Heat from the pre-injection was not used during fitting. The data were fit using a one-site binding model available in the Origin® ITC data analysis software (MicroCal Origin® V5.0, MicroCal Software, Northampton, Mass.). Error values obtained from the MicroCal Origin® V5.0 software were averaged and reported. […]

Where [1] appears, read: ITC, wild-type full-length ADP-bound HSP70.

T1 sequence (P0DMV8 whole entry E110D): as the sequence (P0DMV8 whole entry E110D, the tested form may be a part) above

In general, Kd refers to the constant that tells how readily two partners part at equilibrium. High values mean lower affinity, low ones higher affinity. As to `NS(=O)(=O)C#Cc1ccccc1` [PES, 2-Phenylethynesulfonamide, reference compound], the “binding to HSP70 after pre-incubation with the other compound (PES / PET-16)” value at HSP70 is “impaired”. Besides, the Kd at ADP-HSP70 (WT, aa 1-641) (setting [1]) is roughly 5.7 µM.

For `C(#C[P+](c1ccccc1)(c1ccccc1)c1ccccc1)c1ccccc1.[Br-]` [PET-16, triphenyl(phenylethynyl)phosphonium bromide], the “binding to HSP70 after pre-incubation with the other compound (PES / PET-16)” value on HSP70 is on record as “markedly reduced”. The Kd at ADP-HSP70 (WT, aa 1-641) (setting [1]) is roughly 3.8 µM; on ADP-HSP70 (WT, aa 1-641) (dimeric ADP-bound HSP70 (N=0.5)) it was 3.8 µM; on ADP-HSP70 (WT, aa 1-641) (tetrameric ADP-bound HSP70 (N=0.25)), 1.3 µM.
